These results are taken from ChEMBL document CHEMBL3102748, “Structure-activity relationship studies on acremomannolipin A, the potent calcium signal modulator with a novel glycolipid structure 2: Role of the alditol side chain stereochemistry” (Bioorg Med Chem, 2014).

Each structure is given as a SMILES string. Active and inactive are the calls of the source. The rule behind the calls is not given here.

The test system of this experiment is Schizosaccharomyces pombe. Description: Induction of calcium signaling pathway-mediated cell growth in ppb1-deficient Schizosaccharomyces pombe h+ leu1 ura4-D18 ppb1::ura4+ at 100 uM after 3 days by filter paper disc method in presence of MgCl2. It counts as functional, organism-based.
For `CCCCCCCC(=O)O[C@@H]1[C@H](OC[C@H](O)[C@@H](O)[C@@H](O)[C@H](O)CO)O[C@H](COC(=O)CCCCC)[C@@H](OC(=O)CCCCC)[C@@H]1OC(=O)CCCCC`, the result was Active. The result for `CCCCCCCC(=O)O[C@@H]1[C@H](OC[C@@H](O)[C@@H](O)[C@H](O)[C@H](O)CO)O[C@H](COC(=O)CCCCC)[C@@H](OC(=O)CCCCC)[C@@H]1OC(=O)CCCCC` reads “Active”. In the case of `CCCCCCCC(=O)O[C@@H]1[C@H](OC[C@@H](O)[C@H](O)[C@H](O)[C@@H](O)CO)O[C@H](COC(=O)CCCCC)[C@@H](OC(=O)CCCCC)[C@@H]1OC(=O)CCCCC` it was “Active”. As to `CCCCCCCC(=O)O[C@@H]1[C@H](OC[C@H](O)[C@@H](O)[C@H](O)[C@H](O)CO)O[C@H](COC(=O)CCCCC)[C@@H](OC(=O)CCCCC)[C@@H]1OC(=O)CCCCC`, the outcome was Active. In the case of `CCCCCCCC(=O)O[C@@H]1[C@H](OC[C@@H](O)[C@H](O)[C@@H](O)[C@@H](O)CO)O[C@H](COC(=O)CCCCC)[C@@H](OC(=O)CCCCC)[C@@H]1OC(=O)CCCCC` it was “Active”. In the case of `CCCCCCCC(=O)O[C@@H]1[C@H](OC[C@@H](O)[C@@H](O)[C@H](O)[C@@H](O)CO)O[C@H](COC(=O)CCCCC)[C@@H](OC(=O)CCCCC)[C@@H]1OC(=O)CCCCC` it was “Active”.
